Columns and labels:
[1] = Ketoconazole interaction study, plasma pharmacokinetics; type: in vivo, human
[2] = Safety and tolerability assessments in the three clinical studies; type: in vivo, human
syk = conditions: statement of the introduction, no reference given; cited from earlier work
[3] = Microsomal stability of R406 in human hepatic microsomes; type: in vitro ADME; conditions: R406 1 μM, 0.1 mg microsomal protein, NADPH 1 mM, 37 °C, pH 7.4
[4] = Verapamil interaction study, plasma pharmacokinetics; type: in vivo, human
[5] = Rifampicin interaction study, plasma pharmacokinetics; type: in vivo, human
[6] = 10 μM R406, 1 mg protein/mL, 15 min
[7] = R406, 80 mg fostamatinib + ketoconazole (P2), n=8
[8] = R406, 80 mg fostamatinib alone (P1), n=8
[9] = R406, 80 mg fostamatinib, ketoconazole 200 mg twice daily
[10] = R406 in plasma, single oral 80 mg fostamatinib alone (P1), n=8
[11] = R406, 150 mg fostamatinib alone (P1), n=15
[12] = R406 in plasma, single oral 150 mg fostamatinib alone (P1), n=15
[13] = R406, 150 mg fostamatinib + rifampicin (P2), n=15

COc1cc(Nc2ncc(F)c(Nc3ccc4c(n3)N(COP(=O)(O)O)C(=O)C(C)(C)O4)n2)cc(OC)c1OC [Fostamatinib]
plasma levels of R788 ([1]; 80 mg fostamatinib with ketoconazole-placebo or with ketoconazole): negligible
highest plasma concentration of R788 obtained in any subject ([1]; 80 mg fostamatinib with placebo or ketoconazole): < 7 ng/mL
time post-dose beyond which no quantifiable R788 (above 0.5 ng/mL) was obtained ([1]; any subject): 2 h
tolerability ([2]; all three clinical studies, alone and in combination with a CYP3A4 inducer/inhibitor): well tolerated
deaths, serious AEs, withdrawals due to AEs, severe AEs ([2]; any of the three studies): no deaths, serious AEs, withdrawals due to AEs or severe AEs
treatment-emergent AEs in subjects receiving fostamatinib and ketoconazole ([2]; ketoconazole interaction study): No treatment-emergent AEs
total AEs reported ([2]; ketoconazole interaction study, all treatments, N=8): eight
total AEs recorded ([2]; rifampicin interaction study, all arms, all mild): four
AEs considered related to administration of fostamatinib ([2]; verapamil interaction study): None
total AEs reported ([2]; verapamil interaction study, one AE per treatment arm, one mild, two moderate): three
activity against syk compared with R406 (syk): much less active

COc1cc(Nc2ncc(F)c(Nc3ccc4c(n3)NC(=O)C(C)(C)O4)n2)cc(OC)c1OC [R406]
microsomal half-life [3]: 0.407 h
increase in R406 exposure with ketoconazole co-administration ([1]; 80 mg fostamatinib, ketoconazole 200 mg twice daily): 2 fold
tmax, median [1, 7]: 2.00 h
t½, geometric mean (GCV %) [1, 7]: 17.7 (31.9) h
tmax, median [1, 8]: 1.25 h
t½, geometric mean (GCV %) [1, 8]: 13.6 (32.1) h
average increase in AUC0–∞ after co-administration of ketoconazole [1, 9]: 102%
average increase in Cmax after co-administration of ketoconazole [1, 9]: 37%
average t½ ([1]; R406, fostamatinib alone): 14.2 h
tmax (value of the text, not the median) ([1]; R406, fostamatinib plus ketoconazole): 1.69 h
average t½ ([1]; R406, fostamatinib with ketoconazole co-administration): 18.4 h
AUC0–∞, geometric mean (GCV %) [1, 10]: 3690 (19.9) ng·h/mL
Cmax, geometric mean (GCV %) [1, 10]: 325 (13.7) ng/mL
effect of verapamil co-administration on R406 Cmax ([4]; 150 mg fostamatinib): no consistent effect
effect of verapamil on R406 tmax ([4]; 150 mg fostamatinib): no consistent effect
subjects with higher R406 AUC after verapamil co-administration ([4]; 150 mg fostamatinib, verapamil 80 mg three times daily): 10 of the 13
t½, geometric mean (GCV %) ([4]; R406, 150 mg fostamatinib + verapamil (P2), n=13): 19.1 (51.1) h
tmax, median ([4]; R406, 150 mg fostamatinib + verapamil (P2), n=14): 1.50 h
tmax, median [4, 11]: 1.48 h
t½, geometric mean (GCV %) [4, 11]: 13.5 (28.4) h
AUC0–∞, geometric mean (GCV %) [4, 12]: 6380 (36.1) ng·h/mL
Cmax, geometric mean (GCV %) [4, 12]: 588 (45.7) ng/mL
reduction in R406 Cmax with rifampicin co-administration ([5]; 150 mg fostamatinib, rifampicin 600 mg once daily): ~60%
effect of rifampicin co-administration on tmax ([5]; R406, 150 mg fostamatinib): no consistent effect
tmax, median [5, 13]: 1.00 h
t½, geometric mean (GCV %) [5, 13]: 10.8 (38.6) h
tmax, median [5, 11]: 2.00 h
t½, geometric mean (GCV %) [5, 11]: 15.0 (30.3) h
AUC0–∞, geometric mean (GCV %) [5, 12]: 6540 (48.5) ng·h/mL
Cmax, geometric mean (GCV %) [5, 12]: 573 (58.7) ng/mL
major metabolite [6]: para-O-demethylated R406, R529

COc1cc(Nc2ncc(F)c(Nc3ccc4c(n3)NC(=O)C(C)(C)O4)n2)cc(OC)c1O [R529]
activity against syk compared with R406 (syk): much less active

From article PMC4767720 (Drugs in R&D, 2016)
